Test results published in patent publication US20080248077A1, “Formulation” (ASTRAZENECA AB, priority 2005, published 2008).
In brackets after ≈: the same amount, converted by molar mass. Where two headings read alike, the source gives them in different places.

Experiment: water solubility of anastrozole
Assay type: physicochemical

solubility (at 25° C., read-out: water solubility): 0.53 mg/mL (≈ 1810 µM)
solubility (read-out: aqueous solubility): 0.53 mg/mL (≈ 1810 µM)
SMILES: CC(C)(C#N)c1cc(Cn2cncn2)cc(C(C)(C)C#N)c1 [anastrozole, Anastrozole]
